Consider four compounds from PMC8526204, “Effects of Sinapic Acid Combined with Cisplatin on the Apoptosis and Autophagy of the Hepatoma Cells HepG2 and SMMC-7721” (Evidence-based Complementary and Alternative Medicine : eCAM, 2021).

For data set [1], the system named is HepG2 cells. Briefly: Cell cycle analysis by flow cytometry (PI), HepG2. Format: cell-based, human. The conditions noted are these: 72 h, control 12.79 ± 0.89%. The method, then: The HepG2 and SMMC-7721 cells were seeded in a 6-well plate (5 × 10^5 cells/well). The cells were photographed using the inverted microscope (Eclipse Ti-S, Nikon Co., Ltd., Japan) to observe the morphological changes. The cells were collected, treated with 70% precooled ethanol (1 mL) in an ice bath, blew and mixed well, and then, fixed overnight at 4°C. The cells were stained with 25 µL PI staining solution and 10 µL RNase staining solution, according to the manufacturer's protocol, and the cell cycle was analyzed by flow cytometry (Attune NxT, Thermo Fisher Scientific Inc., USA).

For data set [2], the system named is SMMC-7721 cells. Briefly: Western blot of apoptosis- and autophagy-related proteins, SMMC-7721. Type of data set: cell-based, human. How it is done: (§1) The HepG2 and SMMC-7721 cells treated with Sa/DDP were collected and using radioimmunoprecipitation assay buffer to lyse the cells at 4°C for 30 min to extract the total protein. The protein concentration of the samples was measured using the BCA protein assay kit, after centrifugation at 12,000 g at 4°C for 5 min, and denatured by boiling at 100°C. An equal amount of protein (30 μg) was resolved using the sodium dodecyl sulfate-polyacrylamide gel (10–12%) electrophoresis for 1.5 h. The proteins were then transferred onto a membrane of nitrocellulose and blocked using 5% skimmed milk for 2 h at 20°C, followed by rinsing thrice using PBS containing 0.1% Tween 20 (PBS-T), for 5 min each. Furthermore, the […] were incubated in diluted anti-Bax, Bcl-2 PARP, c-PARP, a-caspase-3, caspase-3, p62, Beclin-1, Atg5, LC3I/II, and β-actin according to 1 : 1,000, incubated overnight at 4°C, and subsequently washed repeatedly the next day. The membranes were incubated with a secondary antibody (1 : 3000) for 1 h at ambient temperature and washed repeatedly. After washing the membrane, it was developed by the FluorChem M image acquisition system (Protein Simple Inc., USA). The quantification was performed (where appropriate) using the ImageJ software (Rawak Software Inc., Stuttgart, Germany).
On the technique in general: In western blotting, separated proteins are transferred to a membrane and probed.

Data set [3] relates to HepG2 cells. Kind of data set: MTT cell viability assay, HepG2. Type of data set: cell-based, human. The conditions noted are these: for IC50: Homo sapiens, HepG2, Sa treatment, MTT. The method, then:
(§2) The cells HepG2, SMMC-7721, and HL-7702 were seeded in 96-well plates containing 6,000 cells per well, supplemented with various concentrations of Sa (0–2,000 μM) and DDP (5 μM). After the cells were incubated at 37°C for 24, 48, and 72 h, they were cultured with 20 µL MTT (5 mg/mL) for 4 h. The formazan crystals were dissolved by adding 150 µL of dimethyl sulfoxide, followed by recording the absorbance at 490 nm using a microplate reader (Varioskan LUX, Thermo Fisher Scientific Inc., USA) and calculating the percentage of cell viability.
(Tetrazolium dyes change colour on reduction, which living cells bring about.)

Data set [4] is described as follows: MTT cell viability assay, HepG2. Format: cell-based, human. To be noted: human, HepG2 cells. How it is done:
as §2

For data set [5], the system named is HepG2 cells. Kind of data set: Western blot of apoptosis- and autophagy-related proteins, HepG2. Type of data set: cell-based, human. The method, then: as §1
Data set [6] deals with SMMC-7721 cells. Briefly: Transwell migration assay, SMMC-7721. Format: cell-based, human. The conditions noted are these: SMMC-7721, Sa 600 μM, 24 h. How it is done: (§3) The lower section contained 700 μL of DMEM (including 10% FBS) along with the drug to be loaded. Briefly, 3 × 10^4 cells were added to the upper chamber while the lower chamber was filled with 10% FBS after incubating the cells for 24 h. The cells were cultured at 37°C for 24 h, fixed with a 4% paraformaldehyde solution, and stained with 0.5 mL of crystal violet. Subsequently, the cells in the upper chambers were removed by gently dabbing them with cotton swabs. These cells were photographed, and the invaded cells were observed using an inverted microscope (DM4 B, Leica Inc., Germany). Finally, the stained cells were counted in five randomly chosen fields under the microscope for further analysis.

For data set [7], the system named is SMMC-7721 cells. Briefly: MTT cell viability assay, SMMC-7721. Type of data set: cell-based. To be noted: Homo sapiens, SMMC-7721, Sa treatment. How it is done:
(§4) After the cells were incubated at 37°C for 24, 48, and 72 h, they were cultured with 20 µL MTT (5 mg/mL) for 4 h. The formazan crystals were dissolved by adding 150 µL of dimethyl sulfoxide, followed by recording the absorbance at 490 nm using a microplate reader (Varioskan LUX, Thermo Fisher Scientific Inc., USA) and calculating the percentage of cell viability.

In data set [8] the test system is HepG2 cells. Briefly: Annexin V-FITC/PI apoptosis assay, HepG2. Type of data set: cell-based, human. To be noted: HepG2, Sa 600 μM, 72 h; control 13.06 ± 1.04%. How it is done:
(§5) The HepG2 and SMMC-7721 cells were seeded into a 6-well plate (1 × 10^5 cell/well), and after 72 h, the cells in each group were treated with trypsin and collected. The cells were rinsed twice in PBS, and a concentration of 5 × 10^5 cells/mL was treated with a binding buffer. According to the manufacturer's protocol, the cells were stained with 5 µL PI staining solution and 10 µL Annexin V-FITC staining solution with incubation for 30 min in the dark.

The subject of data set [9] is SMMC-7721 cells. Briefly: Colony formation assay, SMMC-7721. Type of data set: cell-based, human. The conditions noted are these: SMMC-7721, Sa 600 μM, 72 h then 10 d. How it is done: (§6) The HepG2 and SMMC-7721 cells were seeded in a 12-well plate (200–300 cells/well). […] Then, the recovery medium was added to the complete medium (1 mL) and cultured for 10 d. Subsequently, these cells were fixed in 4% paraformaldehyde solution (1 mL) at 37°C for 2 h, stained with 0.5% crystal violet staining solution (0.5 mL) for 15 min, and photographed, and the numbers of colonies formed were tabulated. The findings were expressed as a percentage of the number of colonies in each experimental group (assuming that the control group was 100%). The ImageJ software (Rawak Software Inc., Stuttgart, Germany) was used for analyzing the data.

Data set [10] deals with HL-7702 cells. Briefly: MTT cell viability assay, normal liver HL-7702. Format: cell-based, human. To be noted: for IC50: Homo sapiens, L02, HL-7702, Sa treatment, MTT. How it is done: as §4
Data set [11] deals with SMMC-7721 cells. Briefly: Annexin V-FITC/PI apoptosis assay, SMMC-7721. Format: cell-based, human. To be noted: SMMC-7721, Sa 600 μM, 72 h; control 3.67 ± 0.34%. The method, then:
as §5

In data set [12] the test system is HepG2 cells. Briefly: Transwell migration assay, HepG2. Type of data set: cell-based, human. To be noted: HepG2, Sa 600 μM, 24 h. How it is done: as §3
For data set [13], the system named is HepG2 cells. Kind of data set: Colony formation assay, HepG2. Type of data set: cell-based, human. The conditions noted are these: HepG2, Sa 600 μM, 72 h then 10 d. The method, then: as §6
[14] abbreviates: HepG2, HCQ 40 μM pretreatment 1 h then Sa 600 µM/DDP 5 µM 72 h.
Where [15] appears, read: SMMC-7721, Sa 600 μM, 72 h, vs control.
[16] abbreviates: HepG2, Sa 600 μM, 72 h, vs control.
[17] abbreviates: HepG2, Sa 600 μM, 72 h, western blot.
Setting [18] is: HepG2, Z-VAD-FMK 20 µM pretreatment 1 h then Sa 600 µM/DDP 5 µM 72 h.

Where a name gives a salt, the structure may show the parent alone. Read-outs that look alike come from different tables or passages of the source. Peptide text beside a SMILES is read from it. * marks the point of attachment. Cbz = O=C(OCc1ccccc1)*; CH2F = FC*

As a reminder, the viability is a read-out of living cells in per cent, often relative to untreated cells. As usually defined, the IC50 is the concentration that gives 50% inhibition. Broadly, the cell viability is a read-out of living cells in per cent, often relative to untreated cells.

As to `N.N.[Cl][Pt][Cl]` [DDP, Cisplatin], the “percentage of cells in the G2/M phase” value in data set [1] (HepG2, DDP 5 μM) is reported as 15.40 ± 1.23%.
For the compound `CCN(CCO)CCCC(C)Nc1ccnc2cc(Cl)ccc12` (stereo not shown) [HCQ, Hydroxychloroquine sulfate, reference compound], the “a-caspase-3 protein expression increase compared to Sa/DDP treatment” value in [2] (SMMC-7721, HCQ 40 µM pretreatment 1 h then Sa 600 µM/DDP 5 µM 72 h) stood at 0.73 times; in data set [5] (setting [14]) it was 0.34 times. Moreover, the “reduction of cell viability compared to Sa/DDP” value in data set [3] (setting [14]) came out at 19.07 ± 4.70%. Further, the viability at 1 h, 40 μM in data set [4] (HepG2, HCQ 40 μM pretreatment 1 h, no Sa/DDP, untreated 100.00 ± 19.04%) was 98.3 ± 18.7%.
Consider `COc1cc(/C=C/C(=O)O)cc(OC)c1O` [Sa, Sinapic acid], for which the figures for the “decrease of the migration rate” value in [6] and in [12] were 49.80 ± 5.78% and 41.52 ± 8.80%, respectively. The compound also registered an Atg5 expression increase in [2] (setting [15]) of 4.7 times. Besides, in data set [2] (setting [15]), the Beclin-1 expression increase is on record as 2.5 times. In data set [2] (setting [15]), this compound registered a p62 expression decrease of 1.7 times. Further, the IC50 amounted to 1800 µM in data set [3] (24 h, read-out: IC50 24 h); 1380 µM in [3] (48 h, read-out: IC50 48 h); 794 µM in data set [3] (72 h, read-out: IC50 72 h); 2580 µM in [7] (24 h, read-out: IC50 24 h); 1620 µM in [7] (48 h, read-out: IC50 48 h); 1350 µM in data set [7] (72 h, read-out: IC50 72 h). Also, the IC50 is 5060 µM in [10] (24 h, read-out: IC50 24 h); 4430 µM in [10] (48 h, read-out: IC50 48 h); 4020 µM in data set [10] (72 h, read-out: IC50 72 h). This compound also showed a viability at 72 h, 600 µM in data set [4] (HepG2, Sa 600 µM, 72 h) of 71.3 ± 4.08%. In addition, the results for the apoptosis rate in data set [8] and in data set [11] were 36.00 ± 2.52% and 10.74 ± 0.75%, respectively. Further, the “Atg5 protein expression increase” value in [5] (setting [16]) was 2.9 fold. Further, the “Beclin-1 protein expression increase” value in data set [5] (setting [16]) is 4.8 fold. Also, the “p62 protein expression decrease” value in data set [5] (setting [16]) turned out to be 2.3 fold. In data set [5] (setting [17]), the “cleaved PARP protein increase vs control” value turned out to be 4.3 times. Also, the “cleaved caspase-3 protein increase vs control” value in data set [5] (setting [17]) was determined as 13.6 times. Moreover, the “percentage of cells in the G2/M phase” value in data set [1] (HepG2, Sa 600 μM) was found to be 22.60 ± 2.26%. For the same compound, the “proliferation activity (colony formation, control = 100%)” value in data set [9] came out at 72.90 ± 1.29%; in [13], 71.46 ± 2.23%. In addition, in data set [10] (HL-7702, MTT), the “inhibitory effect on normal liver cells” value is recorded as “not pronounced”.
Take `COC(=O)C[C@H](NC(=O)[C@H](C)NC(=O)[C@@H](NC(=O)OCc1ccccc1)C(C)C)C(=O)CF` [Z-VAD-FMK, reference compound] (Cbz-Val-Ala-Asp(OMe)-CH2F): the cell viability in [3] (HepG2, Z-VAD-FMK 20 μM pretreatment 1 h, no Sa/DDP, untreated 100.00 ± 19.04%) turned out to be 100.66 ± 12.14%. In [5] (setting [18]), the “LC3II protein expression increase compared to group without Z-VAD-FMK” value worked out at 45.30 ± 2.05% and the “caspase protein lysis decrease compared to group without Z-VAD-FMK” value was 25.22 ± 1.22%.
